From patent US20230293526A1, “METHOD FOR TREATING CANCER WITH A REVERSE TRANSCRIPTASE INHIBITOR” (PrimeFour Therapeutics, Inc., priority 2020, published 2023)

Tests used:
Assay in all cases: Cell proliferation Ex.3
Type in all cases: cell-based
A204 = conditions: Homo sapiens
Experimental: (§1) A dose response relationship on cell proliferation was assessed for Compound 13 on 140 tumor cell lines. […] Cells were cultured in the appropriate media. For the assays, cells were seeded in white cell culture-treated flat and clear bottom multiwell plates and incubated at 37° C. overnight before compound was added. […] on the medium, cell plates were equilibrated to room temperature for one hour, CellTiterGlo reagent (Promega) was added and luminescence was measured approximately an hour later using a luminometer. Raw data were converted into percent cell viability relative to the high and low control, which were set to 10000 and 000, respectively.

A673 = conditions: Homo sapiens
Experimental: as §1

BT20 = conditions: Homo sapiens, BT-20
Experimental: as §1

BXPC3 = conditions: Homo sapiens, BXPC-3
Experimental: as §1

CAKI1 = conditions: Homo sapiens, CAKI-1
Experimental: as §1

CLS439 = test system: CLS439
Experimental: as §1

HEK293 = conditions: Homo sapiens
Experimental: as §1

HL-60 = conditions: Homo sapiens
Experimental: as §1

HS729 = test system: HS729
Experimental: as §1

HT1080 = conditions: Homo sapiens, HT-1080
Experimental: as §1

IMR90 = conditions: Homo sapiens, IMR-90
Experimental: as §1

J82 = conditions: Homo sapiens
Experimental: as §1

JEG3 = conditions: Homo sapiens, JEG-3
Experimental: as §1

L363 = conditions: Homo sapiens, L-363
Experimental: as §1

MCF7 = conditions: Homo sapiens
Experimental: as §1

MDAMB436 = conditions: Homo sapiens, MDA-MB-436
Experimental: as §1

MDAMB468 = conditions: Homo sapiens, MDA-MB-468
Experimental: as §1

NCI-H23 = conditions: Homo sapiens
Experimental: as §1

NCIH460 = conditions: Homo sapiens, NCI-H460
Experimental: as §1

PANC1005 = conditions: Homo sapiens
Experimental: as §1

RAMOS = conditions: Homo sapiens
Experimental: as §1

SKBR3 = conditions: Homo sapiens, SK-BR-3
Experimental: as §1

SNB75 = conditions: Homo sapiens, SNB-75
Experimental: as §1

SU-DHL-10 = conditions: Homo sapiens, SU-DHL10
Experimental: as §1

U2OS = conditions: Homo sapiens
Experimental: as §1

U87MG = conditions: Homo sapiens, U-87 MG
Experimental: as §1

IC50 (BT20; BT20, 72 h): > 10 µM
IC50 (BT20; BT20, 120 h): > 10 µM
IC50 (BT20; BT20, 168 h): > 10 µM
IC50 (BXPC3; BXPC3, 72 h): > 10 µM
IC50 (BXPC3; BXPC3, 120 h): 1.29 µM
IC50 (BXPC3; BXPC3, 168 h): 0.59 µM
IC50 (HL-60; HL-60, 72 h): > 10 µM
IC50 (HL-60; HL-60, 120 h): > 10 µM
IC50 (HL-60; HL-60, 168 h): > 10 µM
IC50 (HT1080; HT1080, 72 h): > 10 µM
IC50 (HT1080; HT1080, 120 h): > 10 µM
IC50 (HT1080; HT1080, 168 h): > 10 µM
IC50 (MCF7; MCF7, 72 h): > 10 µM
IC50 (MCF7; MCF7, 120 h): > 10 µM
IC50 (MCF7; MCF7, 168 h): > 10 µM
IC50 (MDAMB436; MDAMB436, 72 h): > 10 µM
IC50 (MDAMB436; MDAMB436, 120 h): > 10 µM
IC50 (MDAMB436; MDAMB436, 168 h): > 10 µM
IC50 (MDAMB468; MDAMB468, 72 h): > 10 µM
IC50 (MDAMB468; MDAMB468, 120 h): > 10 µM
IC50 (MDAMB468; MDAMB468, 168 h): > 10 µM
IC50 (NCI-H23; NCI-H23, 72 h): > 10 µM
IC50 (NCI-H23; NCI-H23, 120 h): > 10 µM
IC50 (NCI-H23; NCI-H23, 168 h): > 10 µM
IC50 (PANC1005; Panc1005, 72 h): > 10 µM
IC50 (PANC1005; Panc1005, 120 h): > 10 µM
IC50 (PANC1005; Panc1005, 168 h): > 10 µM
IC50 (RAMOS; 72 h): 4.04 µM
IC50 (RAMOS; 120 h): 0.004 µM
IC50 (RAMOS; 168 h): 1.18 µM
IC50 (SKBR3; SKBR3, 72 h): 1.45 µM
IC50 (SKBR3; SKBR3, 120 h): 0.96 µM
IC50 (SKBR3; SKBR3, 168 h): 0.37 µM
IC50 (SU-DHL-10; SU-DHL-10, 72 h): 0.14 µM
IC50 (SU-DHL-10; SU-DHL-10, 120 h): 61.5 µM
IC50 (SU-DHL-10; SU-DHL-10, 168 h): 3.86 µM
IC50 (U2OS; 72 h): > 10 µM
IC50 (U2OS; 120 h): > 10 µM
IC50 (U2OS; 168 h): > 10 µM
IC50 (U87MG; 72 h): > 10 µM
IC50 (U87MG; 120 h): > 10 µM
IC50 (U87MG; 168 h): > 10 µM
SMILES: C#C[C@]1(CO)O[C@@H](n2cc(F)c(N)nc2=O)C[C@@H]1O [compound 9]
IC50 (A204; A204, 72 h): > 10 µM
IC50 (A204; A204, 120 h): > 10 µM
IC50 (A204; A204, 168 h): > 10 µM
IC50 (A673; A673, 72 h): > 10 µM
IC50 (A673; A673, 120 h): > 10 µM
IC50 (A673; A673, 168 h): > 10 µM
IC50 (CAKI1; CAKI1, 72 h): > 10 µM
IC50 (CAKI1; CAKI1, 120 h): > 10 µM
IC50 (CAKI1; CAKI1, 168 h): > 10 µM
IC50 (CLS439; CLS439, 72 h): > 10 µM
IC50 (CLS439; CLS439, 120 h): > 10 µM
IC50 (CLS439; CLS439, 168 h): > 10 µM
IC50 (HEK293; HEK293, 72 h): > 10 µM
IC50 (HEK293; HEK293, 120 h): > 10 µM
IC50 (HEK293; HEK293, 168 h): > 10 µM
IC50 (HS729; HS729, 72 h): > 10 µM
IC50 (HS729; HS729, 120 h): > 10 µM
IC50 (HS729; HS729, 168 h): > 10 µM
IC50 (IMR90; IMR90, 72 h): > 10 µM
IC50 (IMR90; IMR90, 120 h): > 10 µM
IC50 (IMR90; IMR90, 168 h): > 10 µM
IC50 (J82; J82, 72 h): > 10 µM
IC50 (J82; J82, 120 h): > 10 µM
IC50 (J82; J82, 168 h): > 10 µM
IC50 (JEG3; JEG3, 72 h): > 10 µM
IC50 (JEG3; JEG3, 120 h): > 10 µM
IC50 (JEG3; JEG3, 168 h): > 10 µM
IC50 (L363; L363, 72 h): > 10 µM
IC50 (L363; L363, 120 h): > 10 µM
IC50 (L363; L363, 168 h): > 10 µM
IC50 (NCIH460; NCIH460, 72 h): > 10 µM
IC50 (NCIH460; NCIH460, 120 h): > 10 µM
IC50 (NCIH460; NCIH460, 168 h): > 10 µM
IC50 (SNB75; SNB75, 72 h): > 10 µM
IC50 (SNB75; SNB75, 120 h): > 10 µM
IC50 (SNB75; SNB75, 168 h): > 10 µM
